Results: patent publication US9650339B2, “Inhibitors of histone demethylases” (Gilead Sciences, Inc., priority 2013, dated 2017)

Key:
Type in all cases: biochemical
KDM5B (PLU-1) = target: T1, KDM5B (PLU-1) (Homo sapiens, UniProt Q9UGL1); experiment: Histone lysine demethylase AlphaLISA assay, KDM5B; conditions: read-out: KDM5B HDME Inhibition IC50
T1 sequence (Q9UGL1 1-809): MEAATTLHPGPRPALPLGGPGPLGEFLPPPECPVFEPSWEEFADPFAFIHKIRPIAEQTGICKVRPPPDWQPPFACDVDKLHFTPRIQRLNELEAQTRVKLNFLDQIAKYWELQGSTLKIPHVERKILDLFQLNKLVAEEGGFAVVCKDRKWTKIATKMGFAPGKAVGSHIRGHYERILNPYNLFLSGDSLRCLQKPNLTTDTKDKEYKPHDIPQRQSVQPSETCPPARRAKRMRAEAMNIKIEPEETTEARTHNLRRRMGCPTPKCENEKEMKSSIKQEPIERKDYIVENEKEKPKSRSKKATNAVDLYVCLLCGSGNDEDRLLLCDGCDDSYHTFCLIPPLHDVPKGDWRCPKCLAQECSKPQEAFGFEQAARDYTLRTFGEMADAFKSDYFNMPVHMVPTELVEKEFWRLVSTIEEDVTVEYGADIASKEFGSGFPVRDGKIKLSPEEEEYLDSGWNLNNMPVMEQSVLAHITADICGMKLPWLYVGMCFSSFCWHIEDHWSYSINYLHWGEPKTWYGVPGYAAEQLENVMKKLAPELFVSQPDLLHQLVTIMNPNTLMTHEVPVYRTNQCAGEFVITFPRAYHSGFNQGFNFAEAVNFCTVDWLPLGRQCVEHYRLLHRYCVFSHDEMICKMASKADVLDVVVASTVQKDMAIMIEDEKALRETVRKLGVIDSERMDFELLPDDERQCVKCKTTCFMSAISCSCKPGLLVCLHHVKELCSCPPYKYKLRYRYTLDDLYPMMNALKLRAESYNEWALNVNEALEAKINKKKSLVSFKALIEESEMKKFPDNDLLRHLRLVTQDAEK
How it was run: (§1)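 Steps: enzyme equilibrated 10 min in buffer; compounds in 3% DMSO solution added, 10 min; substrate mix added (peptide, 25 μM L-Asc, 10 μM α-KG), room temperature; acceptor beads, then streptavidin donor beads, dark incubations; plate read.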

KDM2B (FBXL10) = target: T2, KDM2B (FBXL10) (Homo sapiens, UniProt Q8NHM5); experiment: Histone lysine demethylase AlphaLISA assay, KDM2B; conditions: read-out: KDM2B HDME Inhibition IC50
T2 sequence (Q8NHM5 1-650): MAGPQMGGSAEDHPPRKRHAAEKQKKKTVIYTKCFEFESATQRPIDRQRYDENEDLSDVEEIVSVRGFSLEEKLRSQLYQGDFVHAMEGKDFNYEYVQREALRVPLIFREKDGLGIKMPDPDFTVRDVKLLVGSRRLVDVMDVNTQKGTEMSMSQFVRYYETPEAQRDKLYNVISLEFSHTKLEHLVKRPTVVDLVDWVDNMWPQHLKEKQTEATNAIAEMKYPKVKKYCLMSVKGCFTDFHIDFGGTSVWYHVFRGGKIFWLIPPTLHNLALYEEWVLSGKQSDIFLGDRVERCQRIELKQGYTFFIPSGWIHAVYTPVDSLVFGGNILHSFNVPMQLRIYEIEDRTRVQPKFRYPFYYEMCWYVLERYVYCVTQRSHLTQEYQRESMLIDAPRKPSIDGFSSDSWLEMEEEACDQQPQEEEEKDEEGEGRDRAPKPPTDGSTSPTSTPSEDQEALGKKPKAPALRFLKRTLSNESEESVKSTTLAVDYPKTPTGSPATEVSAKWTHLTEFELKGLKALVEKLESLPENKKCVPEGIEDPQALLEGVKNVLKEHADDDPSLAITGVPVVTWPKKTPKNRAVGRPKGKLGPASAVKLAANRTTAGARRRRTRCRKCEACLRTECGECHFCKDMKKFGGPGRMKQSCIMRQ
How it was run: as §1

KDM4B (JMJD2B) = target: T3, KDM4B (JMJD2B) (Homo sapiens, UniProt O94953); experiment: Histone lysine demethylase AlphaLISA assay, KDM4B; conditions: read-out: KDM4B HDME Inhibition IC50
T3 construct: 2-500; purchased BPS; host or cells: Bac (baculovirus system)
T3 sequence (O94953 2-500): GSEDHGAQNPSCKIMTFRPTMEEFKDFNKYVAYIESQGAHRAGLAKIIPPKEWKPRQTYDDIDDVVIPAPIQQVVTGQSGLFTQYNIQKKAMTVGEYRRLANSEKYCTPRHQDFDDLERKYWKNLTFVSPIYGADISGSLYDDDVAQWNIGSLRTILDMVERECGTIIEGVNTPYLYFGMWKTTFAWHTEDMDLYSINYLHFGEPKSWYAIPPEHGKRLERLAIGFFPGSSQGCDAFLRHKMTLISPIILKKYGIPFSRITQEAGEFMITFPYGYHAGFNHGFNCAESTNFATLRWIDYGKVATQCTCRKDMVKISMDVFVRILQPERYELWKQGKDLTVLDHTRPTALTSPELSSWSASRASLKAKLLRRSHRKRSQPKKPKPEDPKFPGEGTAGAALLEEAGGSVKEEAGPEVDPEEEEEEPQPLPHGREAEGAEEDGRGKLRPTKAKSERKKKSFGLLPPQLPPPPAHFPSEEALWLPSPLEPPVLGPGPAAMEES
Description: Assays are performed analogously to the protocol described by PerkinElmer (Roy et al. PerkinElmer Technical Note: AlphaLISA #12, April 2011)
Enzymes are dissolved in enzyme buffer and incubated for 10 min before being added to 3% DMSO solutions of compounds in enzyme buffer. Incubated for another 10 minutes, before substrate solution is added and the reaction mixture is incubated at room temperature. 10 μL acceptor beads, suspended in Epigenetic Buffer (Perkin Elmer AL008) from stock, are added and the suspension is incubated in the dark at room temperature, before a suspension of streptavidin donor beads (Perkin Elmer 6760002) in Epigenetic Buffer is added. After incubation at room temperature in the dark the plates are read.
BK9M3: Biotin-ARTKQTAR(KMe3)STGGKAPRKQ-NH2 (Caslo, Denmark) […]
Substrate Solution: Substrate, 25 μM L-Asc, and 10 μM α-KG in Buffer A.

SMILES	IC50 (KDM5B (PLU-1)) [nM]	IC50 (KDM2B (FBXL10)) [nM]	IC50 (KDM4B (JMJD2B)) [nM]
c1ccc(CN2CCC[C@H]2CNCc2cc(CNCC3CC3)ccn2)cc1 [Compound 16, {[(2S)-1-benzylpyrrolidin-2-yl]methyl}[(4-{[(cyclopropylmethyl)-amino]methyl}pyridin-2-yl)methyl]amine]	250 to 2500	> 2500	> 2500
CNCc1ccnc(CNCCCN(C)Cc2ccccc2)c1 [Compound 17, benzyl(methyl){3-[({4-[(methylamino)methyl]-pyridin-2-yl)methyl)-amino]propyl}-amine]	< 250	> 2500	250 to 2500
CN(C)CCNCc1cc(CNC(C#N)C2CC2)ccn1 (stereo not drawn) [Compound 21, 2-cyclopropyl-2-({[2-({[2-(dimethylamino)ethyl]-amino}methyl)pyridin-4-yl]methyl}amino)-acetonitrile]	> 2500	> 2500	> 2500
N#CCNCc1ccnc(CNCCCCN(Cc2ccccc2)C2CC2)c1 [Compound 23, 2-[({2-[({4-[benzyl(cyclopropyl)-amino]butyl}amino)-methyl]pyridin-4-yl}methyl)amino]-acetonitrile]	250 to 2500	> 2500	> 2500
CNC(C#N)c1ccnc(CNCCCN(C)C)c1 (stereo not drawn) [Compound 24, 2-[2-({[3-(dimethylamino)propyl]-amino}methyl)pyridin-4-yl]-2-(methylamino)-acetonitrile]	< 250	> 2500	< 250
CN(C)C(=O)CNCc1cc(/C=N\C2CC2)ccn1 [Compound 33]	< 250	250 to 2500	> 2500
CC1CC1/N=C/c1ccnc(CNCC(=O)N(C)C)c1 (stereo not drawn) [Compound 35, N,N-dimethyl-2-[({4-[N-(2-methylcyclopropyl)-carboximidoyl]pyridin-2-yl}methyl)amino]-acetamide]	250 to 2500	250 to 2500	< 250
CCSCCNCc1cc(/C=N/C2CC2)ccn1 [Compound 39, N-{[2-({[2-(ethylsulfanyl)-ethyl]amino}methyl)pyridin-4-yl]methylidene}-cyclopropanamine]	250 to 2500	250 to 2500	< 250
CN(CCCNCc1cc(/C=N/C2CC2)ccn1)Cc1ccccc1 [Compound 41, N-({2-[({3-[benzyl(methyl)amino]-propyl}amino)methyl]-pyridin-4-yl}methylidene)-cyclopropanamine]	< 250	> 2500	< 250
CN(C)CCCCNCc1cc(/C=N\C2CC2)ccn1 [Compound 45, N-{[2-({[4-(dimethylamino)butyl]-amino}methyl)-pyridin-4-yl]methylidene}-cyclopropanamine]	250 to 2500	> 2500	250 to 2500
CN(C)CCCCCNCc1cc(/C=N/C2CC2)ccn1 [Compound 47, N-{[2-({[5-(dimethylamino)-pentyl]amino}-methyl)pyridin-4-yl]methylidene}-cyclopropanamine]	< 250	> 2500	250 to 2500
CCN(CC)CCCCNC(=O)CNCc1cc(/C=N/C2CC2)ccn1 [Compound 48, 2-[({4-[N-cyclopropyl-carboximidoyl]pyridin-2-yl}methyl)amino]-N-[4-(diethylamino)-butyl]acetamide]	< 250	> 2500	< 250
O=C(CNCc1cc(/C=N/C2CC2)ccn1)N1CCC[C@@H]1CN1CCCC1 [Compound 49, 2-[({4-[N-cyclopropyl-carboximidoyl]pyridin-2-yl}methyl)amino]-1-[(2R)-2-(pyrrolidin-1-ylmethyl)pyrrolidin-1-yl]ethan-1-one]	< 250	> 2500	< 250
CCN(CCC#N)C(=O)CNCc1cc(/C=N/C2CC2)ccn1 [Compound 50, N-(2-cyanoethyl)-2-[({4-[N-cyclopropyl-carboximidoyl]-pyridin-2-yl}methyl)amino]-N-ethylacetamide]	< 250	250 to 2500	< 250
CCN1CCCC1CNC(=O)CNCc1cc(/C=N/C2CC2)ccn1 (stereo not drawn) [Compound 51, 2-[({4-[N-cyclopropyl-carboximidoyl]-pyridin-2-yl}methyl)-amino]-N-[(1-ethylpyrrolidin-2-yl)methyl]acetamide]	< 250	> 2500	< 250
CN(CCCn1cccn1)C(=O)CNCc1cc(/C=N/C2CC2)ccn1 [Compound 52, 2-[({4-[N-cyclopropyl-carboximidoyl]-pyridin-2-yl}methyl)amino]-N-methyl-N-[3-(1H-pyrazol-1-yl)propyl]acetamide]	< 250	250 to 2500	< 250
O=C(CNCc1cc(/C=N/C2CC2)ccn1)NC1CCN(Cc2ccccc2)C1 (stereo not drawn) [Compound 53, N-(1-benzylpyrrolidin-3-yl)-2-[({4-[N-cyclopropyl-carboximidoyl]pyridin-2-yl}methyl)amino]-acetamide]	< 250	250 to 2500	< 250
CN1CCN(C(=O)CNCc2cc(/C=N/C3CC3)ccn2)CC1 [Compound 54, 2-[({4-[N-cyclopropyl-carboximidoyl]-pyridin-2-yl}methyl)amino]-1-(4-methylpiperazin-1-yl)ethan-1-one]	< 250	> 2500	250 to 2500
O=C(CNCc1cc(/C=N/C2CC2)ccn1)N1CCC(Cc2ccccc2)CC1 [Compound 55, 1-(4-benzylpiperidin-1-yl)-2-[({4-[N-cyclopropyl-carboximidoyl]-pyridin-2-yl}methyl)amino]-ethan-1-one]	< 250	> 2500	< 250
C#CCN(C)C(=O)CNCc1cc(/C=N/C2CC2)ccn1 [Compound 56, 2-[({4-[N-cyclopropyl-carboximidoyl]-pyridin-2-yl}methyl)amino]-N-methyl-N-(prop-2-yn-1-yl)acetamide]	250 to 2500	> 2500	250 to 2500
CN1CCN(C(=O)CNCc2cc(C=O)ccn2)CC1 [Compound 103, 2-({[2-(4-methylpiperazin-1-yl)-2-oxoethyl]-amino}methyl)-pyridine-4-carbaldehyde]	250 to 2500	> 2500	> 2500
